According to the NIST ThermoML archive (doi:10.1021/je700055p):
Numbers after ± are expanded uncertainties.

Test: relative permittivity at various frequencies (dimensionless); xn = mol fraction of the nth substance listed
Conditions: 101.3 kPa, Liquid, Frequency=1 MHz, Coaxial cylinder capacitor

CC#N [acetonitrile] + O
relative permittivity
Conditions | 288.15 K | 293.15 K | 298.15 K | 303.15 K | 308.15 K | 313.15 K | 318.15 K | 323.15 K | 328.15 K | 333.15 K
x1 = 0.0465 | 78.61 ± 0.35 | 76.8 ± 0.34 | 74.92 ± 0.33 | 73.36 ± 0.32 | 71.55 ± 0.32 | 70.04 ± 0.31 | 68.44 ± 0.3 | 66.84 ± 0.29 | 65.36 ± 0.29 | 63.85 ± 0.28
x1 = 0.0988 | 73.85 ± 0.33 | 72.05 ± 0.32 | 70.49 ± 0.31 | 68.85 ± 0.3 | 67.33 ± 0.29 | 65.9 ± 0.29 | 64.34 ± 0.28 | 62.99 ± 0.28 | 61.47 ± 0.27 | 60.07 ± 0.26
x1 = 0.158 | 68.68 ± 0.31 | 67.21 ± 0.3 | 65.57 ± 0.29 | 64.22 ± 0.28 | 62.78 ± 0.28 | 61.26 ± 0.27 | 59.91 ± 0.26 | 58.6 ± 0.26 | 57.29 ± 0.25 | 55.97 ± 0.24
x1 = 0.226 | 63.44 ± 0.29 | 62 ± 0.27 | 60.61 ± 0.27 | 59.3 ± 0.26 | 58.07 ± 0.25 | 56.79 ± 0.25 | 55.44 ± 0.25 | 54.13 ± 0.24 | 53.02 ± 0.23 | 51.79 ± 0.22
x1 = 0.305 | 58.11 ± 0.26 | 56.92 ± 0.25 | 55.69 ± 0.24 | 54.58 ± 0.24 | 53.43 ± 0.23 | 52.28 ± 0.23 | 51.18 ± 0.22 | 49.99 ± 0.22 | 48.92 ± 0.21 | 47.94 ± 0.2
x1 = 0.397 | 53.1 ± 0.24 | 52.2 ± 0.22 | 51.05 ± 0.22 | 50.07 ± 0.22 | 48.88 ± 0.21 | 47.98 ± 0.21 | 46.87 ± 0.21 | 45.89 ± 0.2 | 44.9 ± 0.2 | 43.92 ± 0.18
x1 = 0.506 | 48.72 ± 0.22 | 47.77 ± 0.21 | 46.83 ± 0.2 | 45.89 ± 0.2 | 44.99 ± 0.19 | 44.12 ± 0.19 | 43.18 ± 0.19 | 42.28 ± 0.18 | 41.38 ± 0.18 | 40.52 ± 0.17
x1 = 0.637 | 44.82 ± 0.2 | 43.92 ± 0.19 | 43.1 ± 0.19 | 42.2 ± 0.18 | 41.38 ± 0.18 | 40.64 ± 0.18 | 39.74 ± 0.17 | 38.84 ± 0.17 | 37.97 ± 0.17 | 37.15 ± 0.15
x1 = 0.798 | 41.05 ± 0.18 | 40.39 ± 0.17 | 39.41 ± 0.17 | 38.67 ± 0.17 | 37.85 ± 0.16 | 37.11 ± 0.16 | 36.29 ± 0.16 | 35.39 ± 0.15 | 34.82 ± 0.15 | 34.08 ± 0.14
x1 = 1 | 37.52 ± 0.17 | 36.62 ± 0.16 | 35.88 ± 0.16 | 35.15 ± 0.15 | 34.45 ± 0.15 | 33.75 ± 0.15 | 33.01 ± 0.14 | 32.36 ± 0.14 | 31.62 ± 0.14 | 31.05 ± 0.13
